“And” between values parts separate entries of the source, which are not always exact repeats. Identical values can stand only once.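 Grown in 96-well plates, cells were treated for 48 hours with each compound at five concentrations. Insufficient inhibition: endpoint recorded as highest concentration tested. The concentration for 50% growth inhibition is given as GI50. At the TGI there is no net growth.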
Experiments:
Assay in all cases: DTP human tumour cell line panel, 48 h
786-0 renal = test system: 786-0 renal
CCRF-CEM leukemia = test system: CCRF-CEM leukemia
MDA-MB-435 = test system: MDA-MB-435
RXF 393 renal = test system: RXF 393 renal
SF-295 CNS = test system: SF-295 CNS
SK-MEL-2 melanoma = test system: SK-MEL-2 melanoma
SK-MEL-5 melanoma = test system: SK-MEL-5 melanoma
SK-OV-3 ovarian = test system: SK-OV-3 ovarian
SW-620 colon = test system: SW-620 colon
UACC-257 melanoma = test system: UACC-257 melanoma

Compound	GI50 (786-0 renal)	TGI (786-0 renal) [µM]	GI50 (CCRF-CEM leukemia) [µM]	TGI (CCRF-CEM leukemia)	GI50 (MDA-MB-435) [µM]	TGI (MDA-MB-435) [µM]	GI50 (RXF 393 renal) [µM]	TGI (RXF 393 renal) [µM]	GI50 (SF-295 CNS) [µM]	TGI (SF-295 CNS) [µM]	GI50 (SK-MEL-2 melanoma)	TGI (SK-MEL-2 melanoma) [µM]	GI50 (SK-MEL-5 melanoma) [µM]	TGI (SK-MEL-5 melanoma) [µM]	GI50 (SK-OV-3 ovarian) [µM]	TGI (SK-OV-3 ovarian) [µM]	GI50 (SW-620 colon) [µM]	TGI (SW-620 colon) [µM]	GI50 (UACC-257 melanoma) [µM]	TGI (UACC-257 melanoma) [µM]
CCCCCCN1C(=O)CN=C1Nc1ccc2cc3ccc(NC4=NCC(=O)N4CCCCCC)cc3nc2c1	1.56 µM	2.95	2.49	6.79 µM	1.79	3.77	1.52	3.22	1.82	3.82	2.79 µM	8.45	3.9	15.8	11.6	28.9	1.84	3.7	3.34	9.74
O=C(NO)C(O)C(O)C(O)C(O)CO (stereo unspecified)	> 100 µM and 55.9 µM	> 100	50.6	> 100 µM	> 100	> 100	> 100	> 100		> 100	> 100 µM and 76.6 µM	> 100	> 100	> 100	> 100	> 100	> 100	> 100	> 100	> 100
CC(C)(C)c1ccc(S(=O)(=O)N[C@H]2CC[C@H]3[C@@H]4CCc5cc(O)ccc5[C@H]4CC[C@]23C)cc1	2.19 µM	5.02	2.63	7.79 µM	1.79	3.33	1.61	3.46	1.66	3.16	2.45 µM	4.89	1.65	3.05	3.12	8	3.18	11.8	2.45	6.78
Cc1csc(Nc2nc(-c3cccc(Cl)c3)nc(C(Cl)(Cl)Cl)n2)n1	11 µM	> 33.3	21.7	> 33.3 µM	7.83	> 33.3	1.12	6.44	1.29	9.89	25.8 µM	> 33.3	> 33.3	> 33.3	8.69	> 33.3	2.21	> 33.3	3.53	28
COc1cc(C(=O)N/N=C/c2cccc([N+](=O)[O-])c2)cc(OC)c1OC	5.8 µM	> 100	4.52	> 100 µM	1.09	3.88	6.9	34.3	2.75	29.2	4.16 µM	> 100	2.76	> 100	31.9	> 100	3.15	> 100	5.11	> 100
CCCCCCCCCCCCNC(=O)[C@H]1CSC(c2ccc(OC)c(F)c2)N1 (stereo partly specified)	1.63 µM	3.08	0.225	0.579 µM	0.193	0.385	0.867	2.2	1.72	3.25	1.77 µM	3.41	1.27	2.57	1.96	3.43	0.87	2.81	1.62	3.13
Cc1nc(C(N)=S)sc1C(=O)CC(=O)C(=O)Nc1cccc(Cl)c1C		> 100		> 100 µM		> 100		> 100		> 100		> 100		> 100		> 100		> 100		> 100
COc1cc(C2c3cc4c(cc3[C@@H](Nc3cccc(O)c3)C3COC(=O)[C@H]23)OCO4)cc(OC)c1O (stereo partly specified)	0.98 µM	5.36	0.237	0.973 µM and 7.66 µM		18.8	0.418	9.23	0.585	8.07		15	0.526	6.45		18	0.77	41	0.925	16.9

From PubChem BioAssay (NCI)
